The experiment relates to PC12 cells. Nature of the experiment: Neuroprotective action against β-amyloid, viable cell count / survival rate by WST-8 method. Format: cell-based, rat. On the set-up: key to Neuroprotective action: +, P < 0.05 when compared with the no neuropeptide-added group. The method, then: An experiment was performed similarly to Example 5, and then the neuroprotective action against cell death by β-amyloid of the following PACAP-related neuropeptides (peptides 1, 2, 4, 5, 7, 8, 15, 16, 17, 19, 21, 26, 27, 28, 29, 30, 31, 32, 33, 34, 35, 36, 37, 38 and 39) and VIP-related neuropeptides (peptides 3, 9, 10, 11, 12, 13, 14, 18, 20, 22, 23, 24 and 25) was confirmed. Specifically, amyloid (50 μM) and each of the various PACAP-related neuropeptides and VIP-related neuropeptides were added to the cultured PC12 cells. The number of […] calculated by the WST-8 method, so that comparison and examination was performed for the neuroprotective action of these various peptides against amyloid. If the neuropeptides had neuroprotective action, a clear difference in viable cell count can be observed between cases in which neuropeptides were added and cases in which neuropeptides were not added. In PC12 cells added with each of the various neuropeptides, a case wherein a higher cell survival rate (P<0.05) was observed compared with groups in which neuropeptides had not been added, was determined as having neuroprotective action. The results are shown in Table 1 and Table 2. β-amyloid was added to PC12 cells that had been cultured similarly to Example 5. At this time, neuropeptides PACAP27, VIP and humanin, and a cell-permeable cAMP derivative were allowed to respectively co-exist, so that the effect of these neuropeptides against cell death by β-amyloid was confirmed. Cell death was examined by evaluating cell count using the WST-8 method, and then by calculating cell survival rate. […] In the presence of β-amyloid, approximately 70% of the cells died. […] The neuroprotective action of humanin, a recently found human-derived neuroprotective substance (Proc Natl Acad Sci USA (2001) 98 (11) 6336-6341), was also examined. […] At this time, neuropeptides at various concentrations were allowed to co-exist, so that the relationship between the neuroprotective action and the concentration was investigated. Cells were calculated by the WST-8 method, and then the extent to which cell death by β-amyloid could be attenuated was expressed numerically.

Setting [1] is: PACAP-related neuropeptide 10^−9 M, amyloid (50 μM), cell survival rate vs no peptide.
Setting [2] is: VIP-related neuropeptide 10^−7 M, amyloid (50 μM), cell survival rate vs no peptide.

Like-named read-outs stand apart in the source and are kept apart here. Square brackets hold non-standard residues; d marks the D form. Nle = CCCC[C@H](N)C(=O)O

On to “PACAP27 highly basic derivative B (H-HSDGIFTDSYSRYRRQLAVRRYLAAVLGKR-NH2; ends and bridges not checked) [Peptide 16]”, for which the Neuroprotective action result under setting [1] is on record as “+”.
Same read-out and setting: for “PACAP short form (PACAP26) (H-HSDGIFTDSYSRYRKQMAVKKYLAAV-NH2; ends and bridges not checked) [Peptide 28]” the value was “+”.
Consider PACAP38 [Peptide 1], for which the Neuroprotective action result was “+”.
As to “PACAP long form (PACAP29) (H-HSDGIFTDSYSRYRKQMAVKKYLAAVLGK-NH2; ends and bridges not checked) [Peptide 30]”, the Neuroprotective action entry under setting [1] is reported as “+”.
As to “PACAP long form (PACAP28) (H-HSDGIFTDSYSRYRKQMAVKKYLAAVLG-NH2; ends and bridges not checked) [Peptide 29]”, the Neuroprotective action result under setting [1] is on record as “+”.
Consider “PACAP long form (PACAP31) (H-HSDGIFTDSYSRYRKQMAVKKYLAAVLGKRY-NH2; ends and bridges not checked) [Peptide 32]”, for which the Neuroprotective action result under setting [1] is reported as “+”.
The same measure, in the same setting: for “PACAP long form (PACAP36) (H-HSDGIFTDSYSRYRKQMAVKKYLAAVLGKRYKQRVK-NH2; ends and bridges not checked) [Peptide 37]” the value was “+”; for “Arg-PACAP27 (H-HSDGIFTDSYSRYRRQLAVRRYLAAVL-NH2; ends and bridges not checked) [Peptide 6]”, “+”.
Same read-out and setting: for “PACAP long form (PACAP33) (H-HSDGIFTDSYSRYRKQMAVKKYLAAVLGKRYKQ-NH2; ends and bridges not checked) [Peptide 34]” the value was “+”; for “PACAP short form (H-HSDGIFTDSYSRYRKQMAVKKYL-NH2; ends and bridges not checked) [Peptide 19]”, “+”.
On the same count and under the same terms, for “PACAP short form (PACAP24) (H-HSDGIFTDSYSRYRKQMAVKKYLA-NH2; ends and bridges not checked) [Peptide 26]” the value was “+”; for “PACAP long form (PACAP35) (H-HSDGIFTDSYSRYRKQMAVKKYLAAVLGKRYKQRV-NH2; ends and bridges not checked) [Peptide 36]”, “+”; for [A^4, V^5, N^9]-PACAP27 [Peptide 8], “+”.
Consider “PACAP-like-peptide (stargazer-PACAP) (H-HSDGIFTDSYSRYRKQMAVQKYLAAVLGRRYRQRVRNK-NH2; ends and bridges not checked) [Peptide 5]”, for which, under setting [1], the Neuroprotective action entry is “+”.
For “PACAP27 highly basic derivative C (H-HSDGIFTDSYSRYRRQLAVRRYLAAVLGRR-NH2; ends and bridges not checked) [Peptide 17]”, the Neuroprotective action result under setting [1] is “+”.
Still for that read-out and setting: then “PACAP long form (PACAP34) (H-HSDGIFTDSYSRYRKQMAVKKYLAAVLGKRYKQR-NH2; ends and bridges not checked) [Peptide 35]”, with “+”.
On to “[G^4, I^5, S^9]-VIP (H-HSDGIFTDSYTRLRKQMAVKKYLNSILN-NH2; ends and bridges not checked) [Peptide 10]”, for which the Neuroprotective action entry under setting [2] is “+”.
On the same count and under the same terms, for “VIP short form (VIP26) (HSDAVFTDNYTRLRKQMAVKKYLNSI) [Peptide 24]” the value was “+”.
In the case of “humanin (MAPRGFSCLLLLTSEIDLPVKRRA; Humanin; UniProt Q8IVG9 1-24, looked up) [a recently found human-derived neuroprotective substance, reference compound]”, the “neuroprotective action against cell death by β-amyloid (cell survival rate)” value (co-existing with β-amyloid, PACAP27 10^−9 M, FIG. 5) was “showed neuroprotective action, although the effect was also weaker than that of PACAP27”.
With “VIP/PACAP highly basic chimera peptide (H-HSDAVFTDNYTRLRRQ[Nle]AVRRYLNSILNGRRYRQRVRNR-NH2; ends and bridges not checked) [Peptide 18]”, under setting [2], the Neuroprotective action entry is on record as “+”.
As to “VIP short form (VIP24) (HSDAVFTDNYTRLRKQMAVKKYLN) [Peptide 22]”, under setting [2], the Neuroprotective action result is reported as “+”.
Consider “PACAP long form (PACAP32) (H-HSDGIFTDSYSRYRKQMAVKKYLAAVLGKRYK-NH2; ends and bridges not checked) [Peptide 33]”, for which the Neuroprotective action result under setting [1] is given as “+”.
For “VIP highly basic derivative C (HSDAVFTDNYTRLRRQLAVRRYLNSILNGRR) [Peptide 13]”, the Neuroprotective action result under setting [2] is on record as “+”.
“PACAP long form (PACAP37) (H-HSDGIFTDSYSRYRKQMAVKKYLAAVLGKRYKQRVKN-NH2; ends and bridges not checked) [Peptide 38]”: under setting [1], the Neuroprotective action entry is on record as “+”.
Same read-out and setting: for “Arg-PACAP38 (H-HSDGIFTDSYSRYRRQLAVRRYLAAVLGRRYRQRVRNR-NH2; ends and bridges not checked) [Peptide 4]” the value was “+”.
In the case of “VIP highly basic derivative B (HSDAVFTDNYTRLRRQLAVRRYLNSILNGKR) [Peptide 12]”, the Neuroprotective action entry under setting [2] is “+”.
As for “PACAP-like-peptide (stingray-PACAP) (H-HSDGIFTDSYSRYRKQMAVKKYLAAVLGKRYKPKRRNSGRRVFY-NH2; ends and bridges not checked) [Peptide 21]”, the Neuroprotective action entry under setting [1] was “+”.
Same read-out and setting: for “PACAP long form (PACAP30) (H-HSDGIFTDSYSRYRKQMAVKKYLAAVLGKR-NH2; ends and bridges not checked) [Peptide 31]” the value was “+”; for “PACAP short form (PACAP25) (H-HSDGIFTDSYSRYRKQMAVKKYLAA-NH2; ends and bridges not checked) [Peptide 27]”, “+”.
On to “VIP short form (HSDAVFTDNYTRLRKQMAVKKYL) [Peptide 20]”, for which the Neuroprotective action entry under setting [2] was “+”.
As for “VIP highly basic derivative A (HSDAVFTDNYTRLRRQLAVRRYLNSILNGK) [Peptide 11]”, under setting [2], the Neuroprotective action entry is “+”.
Same read-out and setting: then “VIP short form (VIP27) (HSDAVFTDNYTRLRKQMAVKKYLNSIL) [Peptide 25]”, with “+”.
In the case of “PACAP27 highly basic derivative A (H-HSDGIFTDSYSRYRRQLAVRRYLAAVLGK-NH2; ends and bridges not checked) [Peptide 15]”, under setting [1], the Neuroprotective action result was “+”.
Regarding “VIP short form (VIP25) (HSDAVFTDNYTRLRKQMAVKKYLNS) [Peptide 23]”, the Neuroprotective action result under setting [2] is listed as “+”.
Regarding “[A^4, V^5]-PACAP27 (H-HSDAVFTDSYSRYRKQMAVKKYLAAVL-NH2; ends and bridges not checked) [Peptide 7]”, the Neuroprotective action result under setting [1] is listed as “+”.
With “[G^4, I^5]-VIP (H-HSDGIFTDNYTRLRKQMAVKKYLNSILN-NH2; ends and bridges not checked) [Peptide 9]”, the Neuroprotective action result under setting [2] is “+”.

These data come from patent US20040132648A1, “Remedies and/or preventives for conformational diseases” (priority 2001, published 2004).
